Laboratory results from patent publication US8865724B2, “Preparation of 2-methyl-4-amino-5(substituted-1H-1,2,3-triazolyl)methylpyrimidine derivatives and microbicidal activity thereof” (Central China Normal University, priority 2011, dated 2014).
Where two headings read alike, the source gives them in different places.

Legend:
[1] = tested on: Cucumber Angular Leaf Spot; assay: Microbicidal activity on cucumber seedlings, spray then inoculation (Embodiment 8); settings: for pest or weed control at 500 µg/g: Cucumis sativus, read-out: Cucumber Angular Leaf Spot Average inhibition rate (%); for Cucumber Angular Leaf Spot Average inhibition rate (%): testing concentration of 500 μg/g
Protocol: (§1) (Pseudomonassyringaepv. tomato (Okabe) Young, Dye & Wilkie), Cucumber Angular Leaf Spot, Rice Sheath Blight Disease (Rhizoctonia solani), Corynespora Leaf Spot of Cucumber (Corynespora cassiicola), Downy Mildew of Cucumber (Cucumber Downy Mildew).
(§2) Testing agents and control agents were sprayed uniformly at A.M. of a sunshine day on the cucumber seminal leaves. After 2 hours, the leaves were inoculated with pathogenic microbes and cultured at humidity. […] Strip inoculation is used for Rice Sheath Blight Disease and phytophthora blight of pepper, in which the liquor was sprayed and after 2 hours, inoculation of strips was performed followed by culturing at humidity. After full occurrence of diseases in the control group, state of illness was examined according to grading standards, and a disease index and inhibition rate were calculated.

[2] = tested on: Cucumber Angular Leaf Spot; assay: Microbicidal activity on cucumber seedlings, spray then inoculation (Embodiment 7); settings: for pest or weed control at 500 µg/g: Cucumis sativus, read-out: Cucumber bacterial spot (%), controlling effect; for Cucumber bacterial spot (%), controlling effect: testing concentration of 500 μg/g, cucumber seedling
Protocol: Testing Materials: Strain: Cucumber Angular Leaf Spot
Testing method: a cucumber seedling at the stage of 2 seminal leaves was inoculated by spraying a suspension of Cucumber Angular Leaf Spot. Testing agents and control agents were sprayed uniformly on the seminal leaves at A.M. of a sunshine day respectively. After 2 hours, the leaves were inoculated with pathogenic microbes and cultured at humidity. After full occurrence of disease in control group, state of illness was examined according to grading standards, and the controlling effects were measured.

[3] = tested on: Rice Sheath Blight Disease; assay: Microbicidal activity, spray then strip inoculation (Embodiment 8); settings: for pest or weed control at 500 µg/g: Oryza sativa, read-out: Rice Sheath Blight Disease Average inhibition rate (%)
Protocol: as §1, §2

gray mold of cucumber = assay: Spawn growth rate on agar plates (Embodiment 9); format: cell-based, Botrytis cinerea; settings: 48 h; for inhibition of growth at 25 µg/g: Concentration 25 μg/g; for inhibition of growth at 50 µg/g: Concentration 50 μg/g
tobacco brown spot = assay: microbe, parasite or virus in culture; format: cell-based, Alternaria alternate (Fries) Keissler; settings: 48 h, testing concentration of 100 μg/g; Table 4; read-out: Tobacco brown spot Average inhibition rate (%)
anthracnose of cucumber = assay: Spawn growth rate on agar plates (Embodiment 9); format: cell-based, GloeosporiumorbiculareArs; settings: 48 h; testing concentration of 100 μg/g; Table 5
[4] = tested on: Corynespora Leaf Spot of Cucumber; assay: Microbicidal activity on cucumber seedlings, spray then spore inoculation (Embodiment 8); settings: for pest or weed control at 500 µg/g: Corynespora, in Cucumis sativus, read-out: Corynespora Leaf Spot of Cucumber Average inhibition rate (%)
Protocol: as §1, §2

Downy Mildew of Cucumber = assay: as above; settings: for pest or weed control at 500 µg/g: Cucumis sativus, read-out: Downy Mildew of Cucumber Average inhibition rate (%)
Protocol: as §1, §2

early blight of tomato = assay: Spawn growth rate on agar plates (Embodiment 9); format: cell-based, Alternaria solania; settings: for inhibition of growth at 100 µg/g: 48 h, testing concentration of 100 μg/g; for Early blight of tomato (inhibition): Table 7
wheat scab = assay: microbe, parasite or virus in culture; format: cell-based, Gibberella zeae; settings: for inhibition of growth at 100 µg/g: 48 h, read-out: Wheat scab Average inhibition rate (%); for Wheat scab (inhibition): Table 7
[5] = tested on: Rice Sheath Blight Disease (sheath and culm blight of rice); assay: Spawn growth rate on agar plates (Embodiment 9); format: cell-based, Rhizoctonia solani; settings: 48 h; for inhibition of growth at 25 µg/g: Concentration 25 μg/g; for inhibition of growth at 50 µg/g: Concentration 50 μg/g
[6] = testing concentration of 100 μg/g, Table 4, read-out: Gray mold of cucumber Average inhibition rate (%)
[7] = testing concentration of 500 μg/g
[8] = Concentration 12.5 μg/g, Table 8

## Cc1ncc(Cn2cc(COC(=O)c3cc([N+](=O)[O-])cc([N+](=O)[O-])c3)nn2)c(N)n1 [Compound 35]
[1]
  pest or weed control at 500 µg/g: 80%
other
  melting point: 142 to 143 °C
[2]
  pest or weed control at 500 µg/g: 45%
[3]
  pest or weed control at 500 µg/g: 50%
Gray mold of cucumber; [6]
  inhibition of growth at 100 µg/g: 49%
Tobacco brown spot
  inhibition of growth at 100 µg/g: 75%
Anthracnose of cucumber
  inhibition of growth at 100 µg/g: 50%

## Nc1nnc([S-])s1.Nc1nnc([S-])s1.[Cu+2] [Thiodiazole-copper, reference compound]
[1]
  Cucumber Angular Leaf Spot Average inhibition rate (%): 66%
[2]
  Cucumber bacterial spot (%), controlling effect: 65.89%

## Cc1ncc(Cn2cc(COc3cccc(C(F)(F)F)c3)nn2)c(N)n1 [Compound 4]
[1]
  pest or weed control at 500 µg/g: 60%
other
  melting point: 160 to 161 °C
[4]
  pest or weed control at 500 µg/g: 70%
Downy Mildew of Cucumber
  pest or weed control at 500 µg/g: 35%
Early blight of tomato; Table 5
  inhibition of growth at 100 µg/g: 51%
[3]
  pest or weed control at 500 µg/g: 60%
Gray mold of cucumber; [6]
  inhibition of growth at 100 µg/g: 77%
Tobacco brown spot
  inhibition of growth at 100 µg/g: 66%
Anthracnose of cucumber
  inhibition of growth at 100 µg/g: 65%

## Cc1ncc(Cn2cc(COC(=O)c3ccc(Cl)cc3)nn2)c(N)n1 [Compound 33]
Wheat scab
  inhibition of growth at 100 µg/g: 55%
other
  melting point: 188 to 189 °C
[2]
  pest or weed control at 500 µg/g: 60%
[3]
  pest or weed control at 500 µg/g: 55%
Gray mold of cucumber; [6]
  inhibition of growth at 100 µg/g: 61%

## Cc1ncc(Cn2cc(COc3ccc(Cl)cc3Cl)nn2)c(N)n1 [Compound 10]
[1]
  pest or weed control at 500 µg/g: 60%
other
  melting point: 175 to 177 °C
[4]
  pest or weed control at 500 µg/g: 70%
Downy Mildew of Cucumber
  pest or weed control at 500 µg/g: 50%
[3]
  pest or weed control at 500 µg/g: 70%
Gray mold of cucumber; [6]
  inhibition of growth at 100 µg/g: 56%
Tobacco brown spot
  inhibition of growth at 100 µg/g: 58%
Anthracnose of cucumber
  inhibition of growth at 100 µg/g: 64%

## Cc1ncc(Cn2cc(COc3ccc(C(=O)O)cc3)nn2)c(N)n1 [Compound 7]
[1]
  pest or weed control at 500 µg/g: 55%
other
  melting point: > 260 °C
[4]
  pest or weed control at 500 µg/g: 70%
Downy Mildew of Cucumber
  pest or weed control at 500 µg/g: 40%
[3]
  pest or weed control at 500 µg/g: 70%
Gray mold of cucumber; [6]
  inhibition of growth at 100 µg/g: 67%
Tobacco brown spot
  inhibition of growth at 100 µg/g: 57%

## Cc1ncc(Cn2cc(COC(=O)c3ccccc3Cl)nn2)c(N)n1 [Compound 36]
[1]
  pest or weed control at 500 µg/g: 60%
other
  melting point: 85 to 87 °C
[2]
  pest or weed control at 500 µg/g: 60%
[3]
  pest or weed control at 500 µg/g: 45%
Gray mold of cucumber; [6]
  inhibition of growth at 100 µg/g: 61%

## Cc1ncc(Cn2cc(COC(=O)c3cccc(Cl)c3)nn2)c(N)n1 [Compound 39]
[1]
  pest or weed control at 500 µg/g: 10%
other
  melting point: 165 to 166 °C
[2]
  pest or weed control at 500 µg/g: 60%
[3]
  pest or weed control at 500 µg/g: 60%
Gray mold of cucumber; [6]
  inhibition of growth at 100 µg/g: 84%
Tobacco brown spot
  inhibition of growth at 100 µg/g: 50%
Anthracnose of cucumber
  inhibition of growth at 100 µg/g: 52%

## Cc1ncc(Cn2cc(COc3cccc(C)c3C)nn2)c(N)n1 [Compound 14]
[1]
  pest or weed control at 500 µg/g: 60%
other
  melting point: 202 to 204 °C
[4]
  pest or weed control at 500 µg/g: 90%
Downy Mildew of Cucumber
  pest or weed control at 500 µg/g: 35%
[3]
  pest or weed control at 500 µg/g: 70%
Gray mold of cucumber; [6]
  inhibition of growth at 100 µg/g: 54%
Tobacco brown spot
  inhibition of growth at 100 µg/g: 60%

## Cc1ccc(Cl)c(OCc2cn(Cc3cnc(C)nc3N)nn2)c1 [Compound 5]
[1]
  pest or weed control at 500 µg/g: 50%
other
  melting point: 184 to 185 °C
[4]
  pest or weed control at 500 µg/g: 70%
Downy Mildew of Cucumber
  pest or weed control at 500 µg/g: 70%
[3]
  pest or weed control at 500 µg/g: 80%
Gray mold of cucumber; [6]
  inhibition of growth at 100 µg/g: 67%
Tobacco brown spot
  inhibition of growth at 100 µg/g: 56%

## Zhongshengmycin [reference compound]
[1]
  Cucumber Angular Leaf Spot Average inhibition rate (%): 70%
[2]
  Cucumber bacterial spot (%), controlling effect: 70.69%
[4]; [7]
  Corynespora Leaf Spot of Cucumber Average inhibition rate (%): 50%
Downy Mildew of Cucumber; [7]
  Downy Mildew of Cucumber Average inhibition rate (%): 40%
[3]; [7]
  Rice Sheath Blight Disease Average inhibition rate (%): 50%

## S=c1[nH]nc(NCNc2n[nH]c(=S)s2)s1 [Bismerthiazol, reference compound]
[1]
  Cucumber Angular Leaf Spot Average inhibition rate (%): 73%
[2]
  Cucumber bacterial spot (%), controlling effect: 73.14%

## Cc1ncc(Cn2cc(COC(=O)c3ccccc3F)nn2)c(N)n1 [Compound 37]
Wheat scab
  inhibition of growth at 100 µg/g: 51%
[1]
  pest or weed control at 500 µg/g: 37%
other
  melting point: 124 to 125 °C
[2]
  pest or weed control at 500 µg/g: 70%
[3]
  pest or weed control at 500 µg/g: 50%
Gray mold of cucumber; [6]
  inhibition of growth at 100 µg/g: 98%

## Cc1ncc(Cn2cc(COc3ccc([N+](=O)[O-])cc3Cl)nn2)c(N)n1 [Compound 15]
[1]
  pest or weed control at 500 µg/g: 60%
other
  melting point: 194 to 196 °C
[4]
  pest or weed control at 500 µg/g: 80%
Downy Mildew of Cucumber
  pest or weed control at 500 µg/g: 30%
[3]
  pest or weed control at 500 µg/g: 60%
Gray mold of cucumber; [6]
  inhibition of growth at 100 µg/g: 44%
Anthracnose of cucumber
  inhibition of growth at 100 µg/g: 57%

## Cc1ncc(Cn2nnc(COc3ccc(Cl)cc3C)c2I)c(N)n1 [Compound 29]
Wheat scab
  inhibition of growth at 100 µg/g: 67%
Wheat scab; Concentration 25 μg/g
  Wheat scab (inhibition): 26%
Wheat scab; Concentration 50 μg/g
  Wheat scab (inhibition): 45%
Wheat scab; Concentration 100 μg/g
  Wheat scab (inhibition): 52%
other
  melting point: 163 to 165 °C
[5]; [8]
  inhibition of growth at 12.5 µg/g: 33%
[5]; Table 7
  inhibition of growth at 25 µg/g: 64%
  inhibition of growth at 50 µg/g: 70%
[5]; Table 8
  inhibition of growth at 25 µg/g: 68%
  inhibition of growth at 50 µg/g: 69%
[5]; Concentration 100 μg/g, Table 7, read-out: Sheath and culm blight of rice (inhibition)
  inhibition of growth at 100 µg/g: 96%
[5]; testing concentration of 100 μg/g, Table 6, read-out: Sheath and culm blight of rice Average inhibition rate (%)
  inhibition of growth at 100 µg/g: 98%
Early blight of tomato; Table 6
  inhibition of growth at 100 µg/g: 60%
Early blight of tomato; Concentration 25 μg/g
  Early blight of tomato (inhibition): 0%
Early blight of tomato; Concentration 50 μg/g
  Early blight of tomato (inhibition): 25%
Early blight of tomato; Concentration 100 μg/g
  Early blight of tomato (inhibition): 41%
Gray mold of cucumber; [8]
  inhibition of growth at 12.5 µg/g: 47%
Gray mold of cucumber; Table 7
  inhibition of growth at 25 µg/g: 79%
  inhibition of growth at 50 µg/g: 90%
Gray mold of cucumber; Table 8
  inhibition of growth at 25 µg/g: 72%
  inhibition of growth at 50 µg/g: 91%
Gray mold of cucumber; Concentration 100 μg/g, Table 7, read-out: Gray mold of cucumber (inhibition)
  inhibition of growth at 100 µg/g: 100%
Gray mold of cucumber; testing concentration of 100 μg/g, Table 6, read-out: Gray mold of cucumber Average inhibition rate (%)
  inhibition of growth at 100 µg/g: 100%

## Cc1ncc(Cn2cc(COC(=O)c3ccc([N+](=O)[O-])cc3)nn2)c(N)n1 [Compound 32]
[2]
  pest or weed control at 500 µg/g: 60%
Early blight of tomato; Table 5
  inhibition of growth at 100 µg/g: 63%
[3]
  pest or weed control at 500 µg/g: 60%
Gray mold of cucumber; [6]
  inhibition of growth at 100 µg/g: 59%
Tobacco brown spot
  inhibition of growth at 100 µg/g: 87%
Anthracnose of cucumber
  inhibition of growth at 100 µg/g: 67%

## Cc1ncc(Cn2cc(COc3ccc(Cl)cc3)nn2)c(N)n1 [Compound 2]
Wheat scab
  inhibition of growth at 100 µg/g: 51%
[1]
  pest or weed control at 500 µg/g: 60%
other
  melting point: 168 to 170 °C
[4]
  pest or weed control at 500 µg/g: 55%
Downy Mildew of Cucumber
  pest or weed control at 500 µg/g: 75%
[3]
  pest or weed control at 500 µg/g: 80%
Gray mold of cucumber; [6]
  inhibition of growth at 100 µg/g: 73%
Tobacco brown spot
  inhibition of growth at 100 µg/g: 52%
Anthracnose of cucumber
  inhibition of growth at 100 µg/g: 50%

## Cc1ncc(Cn2cc(COC(=O)c3ccc(F)cc3)nn2)c(N)n1 [Compound 34]
Wheat scab
  inhibition of growth at 100 µg/g: 51%
other
  melting point: 198 to 199 °C
[2]
  pest or weed control at 500 µg/g: 60%
[3]
  pest or weed control at 500 µg/g: 40%
Gray mold of cucumber; [6]
  inhibition of growth at 100 µg/g: 63%

## Cc1ccc(C(=O)OCc2cn(Cc3cnc(C)nc3N)nn2)cc1 [Compound 38]
Wheat scab
  inhibition of growth at 100 µg/g: 56%
[1]
  pest or weed control at 500 µg/g: 40%
other
  melting point: 202 to 203 °C
[2]
  pest or weed control at 500 µg/g: 60%
[3]
  pest or weed control at 500 µg/g: 50%
Gray mold of cucumber; [6]
  inhibition of growth at 100 µg/g: 61%
Anthracnose of cucumber
  inhibition of growth at 100 µg/g: 54%
